According to EP4595972A1, “PEPTIDE FOR TREATING OR PREVENTING 4R TAUOPATHY” (GemVax & KAEL Co., Ltd., priority 2022, dated 2024):

Legend:
tau oligomer (Tau-BiFC) = molecular target: T1, tau oligomer (Tau-BiFC) (Homo sapiens, UniProt P10636, P618L); assay: Tau-BiFC fluorescent imaging of brain tissues (tau oligomer formation); type: in vivo, mouse
T1 construct: VN173 (BiFC fragment); VC155 (BiFC fragment); expressed in transfected cells; host or cells: brain of transgenic TauP301L-BiFC mice (transgene-expressed)
T1 sequence (P10636 1-441 isoform P10636-8 P301L): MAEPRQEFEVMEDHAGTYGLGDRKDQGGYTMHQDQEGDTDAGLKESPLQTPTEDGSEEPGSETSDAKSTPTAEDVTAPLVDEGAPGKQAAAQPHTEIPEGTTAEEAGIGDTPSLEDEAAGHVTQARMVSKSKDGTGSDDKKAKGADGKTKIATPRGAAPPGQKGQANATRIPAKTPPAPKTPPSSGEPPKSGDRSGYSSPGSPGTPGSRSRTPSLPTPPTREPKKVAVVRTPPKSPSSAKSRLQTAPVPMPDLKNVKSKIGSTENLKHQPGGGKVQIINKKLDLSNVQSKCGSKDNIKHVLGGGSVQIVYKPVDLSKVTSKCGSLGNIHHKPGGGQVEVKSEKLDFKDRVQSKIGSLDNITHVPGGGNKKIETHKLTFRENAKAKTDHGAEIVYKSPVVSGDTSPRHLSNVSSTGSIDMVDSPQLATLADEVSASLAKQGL
T1 sequence (P10636 1-441 isoform P10636-8 P301L): as above
Description: • 1) Experimental method for brain tissue sampling • (1) On day 1, after completing 63 times administration schedule, the mice of TauP301L-BiFC mouse model were anesthetized, followed by preparing heart laparotomy. • (2) Saline was introduced into the heart of each mouse in the TauP301L-BiFC mouse model, followed by removing vivo blood using a perfusion pump machine. • (3) The brain of the mouse was extracted and weighed. • (4) The brain to be used for tissue staining experiment was immersed in 4% FPA solution and fixed for 24 hours. • (5) On day 2, after completing fixation, the brain tissues were immersed in 20% sucrose solution to remove water for 24 hours. • (6) On day 3, the brain tissues were immersed in 30% sucrose solution to remove water for 48 hours. • (7) On day 5, the brain tissues free of water were taken and extra moisture was removed. Then, the brain tissues and a frozen tissue embedding agent (OCT compound) were placed in a prepared mold, followed by freezing the brain tissues as fast as possible while protecting the tissues. The frozen brain tissue-containing mold was stored in a defreezer at -80°C. Thereafter, using a cryostat for frozen fragment, the tissues were cut into a unit thickness of 30 µm and stored in 0.05% sodium azide solution.
• (1) On day 1, a brain tissue sample having a thickness of 30 µm under cryosection was selected for each brain region, immersed in PBS solution, and then washed three times. • (2) A solution of 0.05% Sudan Black B in 70% EtOH was stirred overnight (O/N), and then, particles were filtered through 0.22 µm filter. • (3) The selected brain tissue sample was immersed in distilled water (D.W.), and washed three times for 5 minutes. • (4) The brain tissues were immersed in a prepared 0.05% Sudan Black B solution, followed by staining for 10 minutes. • (5) The brain tissues stained in Sudan black B were immersed in 0.1% PBS-T solution, and washed at an interval of 30 seconds to control a degree of staining. • (6) The tissues were washed in D.W. three times for 5 minutes. • (7) In Hoechst solution at a concentration of 0.2 µg/mL in distilled water, the brain tissues were immersed to conduct nuclei staining for 20 minutes. • (8) The tissues were washed in D.W. three times for 5 minutes. • (9) Tau-BiFC imaging was performed using a slide scanner.
• (1) In order to obtain fluorescent images of the stained brain tissues, a brain tissue slide was scanned using Zeiss Axio Scan (Zeiss, Oberkochen, Germany). • BiFC fluorescence: λex=460-490 nm, λem=500-550 nm • AT8 fluorescence: λex=620-640 nm, λem=650-700 nm • Hoechst fluorescence: λex=330-375 nm, λem=430-470 nm • (3) For brain tissues per site obtained through imaging, fluorescent value was calculated through Image J software (NIH).

total tau (Tau5) = assay: Tau immunoblot of brain lysate, insoluble fraction, total tau; type: in vivo, mouse; conditions: LMTM 15 mg/kg oral vs. vehicle; decrease (in parentheses)
Method: • (1) Pellets remaining after moving the supernatant (soluble fraction) were dispersed in 1 mL of 1M sucrose, DNase I (conc. 1 mg/mL) in RIPA buffer. • (2) After centrifugation at 4°C with a speed of 13,000 rpm for 20 minutes, the supernatant was removed. • (3) After resuspension of pellets in 2% SDS solution (1 mL per gram of tissue), the mixture was subjected to incubation at room temperature for 1 hour. • (4) After centrifugation at room temperature with a speed of 13,000 rpm for 1 minute, the supernatant (insoluble fraction) was collected and moved to a new ep-tube, and the same amount of 2X SDS Laemmli sample buffer (w/ 2.5% β-mercaptoethanol for reducing condition) was added thereto. • (5) The sample was boiled at 97°C for 5 minutes. […]

[1] = LMTM 15 mg/kg oral vs. vehicle, decrease (in parentheses)
[2] = LMTM 15 mg/kg oral vs. vehicle, decrease (in parentheses), *p<0.05

SMILES: CN(C)c1ccc2c(c1)Sc1cc(N(C)C)ccc1N2.CS(=O)(=O)O.CS(=O)(=O)O [LMTM]
- TauBiFC fluorescent level, Somatosensory cortex (tau oligomer (Tau-BiFC); [1]): (15 %)
- TauBiFC fluorescent level, Substantia nigra (tau oligomer (Tau-BiFC); [1]): (26 %)
- TauBiFC fluorescent level, Hippocampus (tau oligomer (Tau-BiFC); [2]): (21 %)*
- TauBiFC fluorescent level, Motor cortex (tau oligomer (Tau-BiFC); [2]): (27 %)*
- Tau-BiFC fluorescent level as compared to the vehicle group, in words (tau oligomer (Tau-BiFC); LMTM 15 mpk): significantly reduced in the motor cortex, hippocampus and substantia nigra regions
- Insoluble fraction, Total tau (total tau (Tau5)): (42%)
